The target in one data set is T1, BCL-2 (Homo sapiens, UniProt P10415).
T1 construct: purchased BPS Bioscience #50222
In words: BCL-2 TR-FRET Assay (primary PPI inhibition). The following applies: 60 min incubation; read-out: BCL2 (IC50 code, BCL-2 TR-FRET). Format: binding. In general terms: In TR-FRET formats the signal depends on donor and acceptor labels being close together.

For a further data set, the target named is T2, BCL-XL (Homo sapiens, UniProt Q07817).
T2 construct: purchased BPS Bioscience #50223
T2 sequence (Q07817 whole entry): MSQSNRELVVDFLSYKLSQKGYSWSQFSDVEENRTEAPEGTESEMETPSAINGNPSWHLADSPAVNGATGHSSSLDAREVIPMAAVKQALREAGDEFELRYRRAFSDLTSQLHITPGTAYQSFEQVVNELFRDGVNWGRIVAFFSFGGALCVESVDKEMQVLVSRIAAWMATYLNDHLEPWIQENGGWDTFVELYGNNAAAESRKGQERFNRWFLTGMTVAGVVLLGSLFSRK
As to the kind of experiment: BCL-XL TR-FRET Assay (primary PPI inhibition). Type of data set: binding. As to conditions: 60 min incubation; read-out: BCLxL (IC50 code, BCL-XL TR-FRET). Summed up:
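TR-FRET readout (ex 340 nm; em 620/665 nm; 60 μs delay, 500 μs integration) after a 60 min incubation. Mix: compound, 10.5 ng BCL-XL, BCL-XL peptide ligand at 1:80, plus anti-His Tb donor and dye acceptor each at 1:100.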

In the next data set the test system is RS4-11 cells. As to the kind of experiment: Cell viability assay RS4-11 (CellTiter-Glo). Format: cell-based. The following applies: Homo sapiens, read-out: RS4-11 (CC50 code). The method in brief:
(§1)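 Cells were seeded at 2000/well (HEK293, in DMEM, pre-incubated a day) or 4000/well (other lines, in RPMI-1640). Serially diluted compound was added and plates incubated 3 days at 37 °C, with viability read by CellTiter-Glo luminescence.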
For orientation: ATP-based viability assays read luminescence as a measure of living cells.

Another data set concerns MOLT-4 cells. In words: Cell viability assay MOLT-4 (CellTiter-Glo). Format: cell-based. The following applies: Homo sapiens, read-out: MOLT-4 (CC50 code). Summed up:
as §1

A short description of data set [1]: Cell viability assay HEK293 (CellTiter-Glo). Type of data set: cell-based. The following applies: human, HEK293 cells, read-out: HEK293 (CC50 code). The method in brief:
as §1

In data set [2] the test system is caspase-3 and -7 activities in RS4-11 cells. As to the kind of experiment: Cas-3/7 activation (Caspase-Glo 3/7) in RS4-11 cells. Format: cell-based. The following applies: Homo sapiens, 3.5 h at 37° C. and 30 min at r.t., read-out: Cas-3/7 (EC50 code). The protocol:
Assay Principle: The Caspase-Glo 3/7 Assay is homogeneous, luminescent assay that measures caspase-3 and -7 activities. The assay provides a luminogenic caspase-3/7 substrate, which contains the tetrapeptide sequence DEVD, in a reagent optimized for caspase activity.
Assay Procedure: Incubate RS4-11 cells with varying concentrations of test compounds for 3.5 h in a humidified incubator at 37° C. and 5% CO2 and 30 min at r.t. Add 15 μl Caspase-Glo reagent to each well and incubate the plate for 30 min at r.t. Read on ClarioStar Plus instrument.
Materials: Promega Caspase-Glo (Promega, #8212); Frozen RS4-11 cells; 384-well white plate (Corning, #3570).
Instrumentation: ClarioStar Plus; Biomek FX for liquid handling (Beckman Coulter).

[3] abbreviates: 72 h, RS4-11 cells, 3 days, CellTiter-Glo.
[4] abbreviates: 72 h, MOLT-4 cells, 3 days, CellTiter-Glo.

The structures appear in SMILES notation. Like-named read-outs stand apart in the source and are kept apart here. Bounds are passed on as bounds.

T1 sequence (P10415 whole entry): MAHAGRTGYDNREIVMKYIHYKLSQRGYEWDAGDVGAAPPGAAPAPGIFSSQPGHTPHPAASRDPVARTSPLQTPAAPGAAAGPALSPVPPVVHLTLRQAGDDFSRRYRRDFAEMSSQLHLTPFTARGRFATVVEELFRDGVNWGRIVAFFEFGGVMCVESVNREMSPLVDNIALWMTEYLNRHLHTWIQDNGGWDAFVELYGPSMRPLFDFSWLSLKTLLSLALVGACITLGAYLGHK

By IC50 is commonly meant the concentration that inhibits the measured activity by half. A word on the CC50: it is the concentration at which the toxic effect on the cells reaches its halfway point. Regarding `CC(C)C(=O)N1Cc2ccccc2C[C@H]1CN1CCN(c2ccc(C(=O)NS(=O)(=O)c3ccc(NCC4CCOCC4)c([N+](=O)[O-])c3)c(Oc3cnc4[nH]ccc4c3)c2)CC1` [Compound 8, 4-[4-[[2-(2-methylpropanoyl)-3,4-dihydro-1H-isoquinolin-3-yl]methyl]piperazin-1-yl]-N-[3-nitro-4-(tetrahydropyran-4-ylmethylamino)phenyl]sulfonyl-2-(1H-pyrrolo[2,3-b]pyridin-5-yloxy)benzamide], the half-maximal inhibitory concentration (IC50) is above 50 nM at BCL-2 and at most 2000 nM at BCL-XL. In addition, the figures for the CC50 with RS4-11 cells (setting [3]) and with MOLT-4 cells (setting [4]) were above 200 nM and 2000 to 10000 nM, respectively. In data set [1], the CC50 at 3 days was above 25000 nM. The EC50 in data set [2] is above 250 nM.
On to `O=C(NS(=O)(=O)c1ccc(NCC2CCOCC2)c([N+](=O)[O-])c1)c1ccc(N2CCC(CN3C(=O)C4(CCCC4)C3c3cncc(Cl)c3)CC2)cc1Oc1cnc2[nH]ccc2c1` (stereo not drawn) [Compound 9, 4-[4-[[1-(5-chloro-3-pyridyl)-3-oxo-2-azaspiro[3.4]octan-2-yl]methyl]-1-piperidyl]-N-[3-nitro-4-(tetrahydropyran-4-ylmethylamino)phenyl]sulfonyl-2-(1H-pyrrolo[2,3-b]pyridin-5-yloxy)benzamide], for which the results for the concentration for half-maximal inhibition (IC50) on BCL-2 and on BCL-XL were above 50 nM and 2000 to 4000 nM, respectively. Also, the CC50 is above 200 nM in the data set with RS4-11 cells (RS4-11, 72 h) and 2000 to 10000 nM with MOLT-4 cells (MOLT-4, 72 h). For the same compound, the cytotoxic concentration (CC50) at 3 days in data set [1] was above 25000 nM. Further, the EC50 in data set [2] is above 250 nM.
As for `O=C(NS(=O)(=O)c1ccc(NCC2CCOCC2)c([N+](=O)[O-])c1)c1ccc(N2CCN(CC(O)(c3ccccc3)c3ccc(F)c(F)c3)CC2)cc1Oc1cnc2[nH]ccc2c1` (stereo not drawn) [Compound 11, 4-[4-[2-(3,4-difluorophenyl)-2-hydroxy-2-phenyl-ethyl]piperazin-1-yl]-N-[3-nitro-4-(tetrahydropyran-4-ylmethylamino)phenyl]sulfonyl-2-(1H-pyrrolo[2,3-b]pyridin-5-yloxy)benzamide], the 50% inhibitory concentration (IC50) was above 50 nM at BCL-2 and above 4000 nM on BCL-XL. For the same compound, the CC50 was above 200 nM in the data set with RS4-11 cells (setting [3]) and 2000 to 10000 nM in the data set with MOLT-4 cells (setting [4]). Further, the cytotoxic concentration (CC50) at 3 days in data set [1] was above 25000 nM. Besides, the EC50 in data set [2] is above 250 nM.
For the compound `O=C(NS(=O)(=O)c1ccc(NCC2CCOCC2)c([N+](=O)[O-])c1)c1ccc(N2CCN(CC(c3ccccc3)c3ccc(F)c(F)c3)CC2)cc1Oc1cnc2[nH]ccc2c1` (stereo not drawn) [Compound 13, 4-[4-[2-(3,4-difluorophenyl)-2-phenyl-ethyl]piperazin-1-yl]-N-[3 nitro-4-(tetrahydropyran-4-ylmethylamino)phenyl]sulfonyl-2 (1H-pyrrolo[2,3-b]pyridin-5-yloxy)benzamide], the 50% inhibitory concentration (IC50) on BCL-2 was above 50 nM; at BCL-XL, above 4000 nM. Moreover, the CC50 is above 200 nM with RS4-11 cells (setting [3]) and below 2000 nM in the data set on MOLT-4 cells (setting [4]). Besides, the half-maximal cytotoxic concentration (CC50) at 3 days in data set [1] was at most 10000 nM. The EC50 in data set [2] is above 250 nM.
In the case of `O=C(NS(=O)(=O)c1ccc(NCC2CCOCC2)c([N+](=O)[O-])c1)c1ccc(N2CCN(CC3Cc4ccc(Cl)cc4CN3C(=O)C3CC3)CC2)cc1Oc1cnc2[nH]ccc2c1` (stereo not drawn) [Compound 20, 4-[4-[[7-chloro-2-(cyclopropanecarbonyl)-3,4-dihydro-1H-isoquinolin-3-yl]methyl]piperazin-1-yl]-N-[3-nitro-4-(tetrahydropyran-4-ylmethylamino)phenyl]sulfonyl-2-(1H-pyrrolo[2,3-b]pyridin-5-yloxy)benzamide], the figures for the IC50 on BCL-2 and at BCL-XL were above 50 nM and above 4000 nM, respectively. Besides, the CC50 with RS4-11 cells (setting [3]) is above 200 nM; with MOLT-4 cells (setting [4]), 2000 to 10000 nM. Moreover, the CC50 at 3 days in data set [1] is above 25000 nM. In addition, the EC50 in data set [2] was above 250 nM.
In the case of `O=C(NS(=O)(=O)c1ccc(NCC2CCOCC2)c([N+](=O)[O-])c1)c1ccc(N2CCN(CC3Cc4cc(Cl)ccc4CN3C(=O)C3CC3)CC2)cc1Oc1cnc2[nH]ccc2c1` (stereo not drawn) [Compound 22, 4-[4-[[6-chloro-2-(cyclopropanecarbonyl)-3,4-dihydro-1H-isoquinolin-3-yl]methyl]piperazin-1-yl]-N-[3-nitro-4-(tetrahydropyran-4-ylmethylamino)phenyl]sulfonyl-2-(1H-pyrrolo[2,3-b]pyridin-5-yloxy)benzamide], the values for the 50% inhibitory concentration (IC50) at BCL-2 and at BCL-XL were above 50 nM and above 4000 nM, respectively. The CC50 in the data set on RS4-11 cells (setting [3]) is above 200 nM; in the data set on MOLT-4 cells (setting [4]), 2000 to 10000 nM. Further, the CC50 at 3 days in data set [1] was above 25000 nM. Also, the EC50 in data set [2] is above 250 nM.
For `CC1(O)CC[C@H](CN2CCN(c3ccc(C(=O)NS(=O)(=O)c4ccc(NCC5CCOCC5)c([N+](=O)[O-])c4)c(Oc4cnc5[nH]ccc5c4)c3)CC2)[C@@H](c2ccc(Cl)cc2)C1` (stereo partly drawn) [Compound 28, 4-[4-[[(1S,2S)-2-(4-chlorophenyl)-4-hydroxy-4-methyl-cyclohexyl]methyl]piperazin-1-yl]-N-[3-nitro-4-(tetrahydropyran-4-ylmethylamino)phenyl]sulfonyl-2-(1H-pyrrolo[2,3-b]pyridin-5-yloxy)benzamide], the IC50 on BCL-2 is below 5 nM; on BCL-XL, at most 2000 nM. Moreover, the CC50 was in the range of 100 to 200 nM in the data set with RS4-11 cells (setting [3]) and 2000 to 10000 nM in the data set on MOLT-4 cells (setting [4]). Also, in data set [1], the CC50 at 3 days is above 25000 nM. In addition, the EC50 in data set [2] was in the range of 100 to 250 nM.
As for `O=C(NS(=O)(=O)c1ccc(NCC2CCOCC2)c([N+](=O)[O-])c1)c1ccc(N2CCN(C[C@H]3Cc4ccccc4CN3C(=O)C3CC3)CC2)cc1Oc1cnc2[nH]ccc2c1` [Compound 33, 4-[4-[[(3R)-2-(cyclopropanecarbonyl)-3,4-dihydro-1H-isoquinolin-3-yl]methyl]piperazin-1-yl]-N-[3-nitro-4-(tetrahydropyran-4-ylmethylamino)phenyl]sulfonyl-2-(1H-pyrrolo[2,3-b]pyridin-5-yloxy)benzamide], the half-maximal inhibitory concentration (IC50) on BCL-2 is 10 to 50 nM; on BCL-XL it was above 4000 nM. Further, the figures for the 50% cytotoxic concentration (CC50) in the data set on RS4-11 cells (setting [3]) and with MOLT-4 cells (setting [4]) were above 200 nM and 2000 to 10000 nM, respectively. Moreover, the half-maximal cytotoxic concentration (CC50) at 3 days in data set [1] was above 25000 nM. For the same compound, the EC50 in data set [2] was above 250 nM.
As for `O=C(NS(=O)(=O)c1ccc(NCC2CCOCC2)c([N+](=O)[O-])c1)c1ccc(N2CCN(C[C@@H]3Cc4ccccc4CN3C(=O)c3ccc(Cl)s3)CC2)cc1Oc1cnc2[nH]ccc2c1` [Compound 35, 4-[4-[[(3S)-2-(5-chlorothiophene-2-carbonyl)-3,4-dihydro-1H-isoquinolin-3-yl]methyl]piperazin-1-yl]-N-[3-nitro-4-(tetrahydropyran-4-ylmethylamino)phenyl]sulfonyl-2-(1H-pyrrolo[2,3-b]pyridin-5-yloxy)benzamide], the half-maximal inhibitory concentration (IC50) at BCL-2 is above 50 nM; on BCL-XL, above 4000 nM. Further, the results for the 50% cytotoxic concentration (CC50) with RS4-11 cells (setting [3]) and in the data set with MOLT-4 cells (setting [4]) were above 200 nM and 2000 to 10000 nM, respectively. The 50% cytotoxic concentration (CC50) at 3 days in data set [1] was above 25000 nM. The EC50 in data set [2] was above 250 nM.
Take `O=C(NS(=O)(=O)c1ccc(NCC2CCOCC2)c([N+](=O)[O-])c1)c1ccc(N2CCN(C[C@@H]3Cc4ccccc4CN3C(=O)c3ccsc3)CC2)cc1Oc1cnc2[nH]ccc2c1` [Compound 36, N-[3-nitro-4-(tetrahydropyran-4-ylmethylamino)phenyl]sulfonyl-2 (1H-pyrrolo[2,3-b]pyridin-5-yloxy)-4-[4-[[(3S)-2-(thiophene-3 carbonyl)-3,4-dihydro-1H-isoquinolin-3-yl]methyl]piperazin 1-yl]benzamide]: the results for the IC50 at BCL-2 and at BCL-XL were above 50 nM and above 4000 nM, respectively. Also, the CC50 with RS4-11 cells (setting [3]) is above 200 nM; in the data set with MOLT-4 cells (setting [4]), 2000 to 10000 nM. For the same compound, the CC50 at 3 days in data set [1] is 10000 to 25000 nM. In data set [2], the EC50 was above 250 nM.
For the compound `CC1(C)CN(CC2CCN(c3ccc(C(=O)NS(=O)(=O)c4ccc(NCC5CCOCC5)c([N+](=O)[O-])c4)c(Oc4cnc5[nH]ccc5c4)c3)CC2)Cc2ccccc21` [Compound 39, 4-[4-[(4,4-dimethyl-1,3-dihydroisoquinolin-2-yl)methyl]-1-piperidyl]-N-[3-nitro-4-(tetrahydropyran-4-ylmethylamino)phenyl]sulfonyl-2-(1H-pyrrolo[2,3-b]pyridin-5-yloxy)benzamide], the concentration for half-maximal inhibition (IC50) at BCL-2 is above 50 nM; on BCL-XL, above 4000 nM. The cytotoxic concentration (CC50) is above 200 nM in the data set with RS4-11 cells (setting [3]) and 2000 to 10000 nM in the data set with MOLT-4 cells (setting [4]). The half-maximal cytotoxic concentration (CC50) at 3 days in data set [1] is above 25000 nM. Moreover, the EC50 in data set [2] is above 250 nM.
